Source: BindingDB's records for patent US12509424 (Nippon Shinyaku, 2025)

Target: Platelet-derived growth factor receptor beta (Homo sapiens, UniProt P09619)
Assay: PDGFR-β Tyrosine Kinase Inhibitory Action
Experimental: This DMSO solution was diluted by 8 times with an assay buffer 1 (50 mM HEPES (pH 7.0), 0.02% NaN3, 0.01% Bovine Serum Albumin, 0.1 mM orthovanadate, 1 mM Dithiothreitol, 5 mM MgCl2, and 1 mM MnCl2) and further diluted by 5 times with an assay buffer 2 (50 mM HEPES (pH 7.0), 0.02% NaN3, 0.01% Bovine Serum Albumin, 0.1 mM orthovanadate, 1 mM Dithiothreitol, 5 mM MgCl2, 1 mM MnCl2, and 40 nM Supplemented Enzymatic Buffer (cisbio)).2. Measurement of PDGFR-β Tyrosine Kinase Inhibitory ActionFor the measurement, the HTRF KinEASE-TK kit from Cisbio Bioassays SAS was used. To a 384 well plate, the test substance solution was added at 4 μL each, then 2 μL of a PDGFR-β enzyme solution (final concentration of 1 ng/μL, Carna Biosciences, Inc.) and 4 μL of a substrate solution obtained by adding 0.6 μM ATP to TK substrate-3-biotin (cisbio) were added, and the solution was allowed to react at 30° C. for 30 minutes at a final concentration of the test substance being 0.01 to 10,000 nM.Thereafter, 10 μL of a detection solution (cisbio) was added to each well and allowed to react at 30° C. for 1 hour. The fluorescence intensity was measured with a microplate reader (Spectra Max M5, Molecular device).

Sequence of Platelet-derived growth factor receptor beta (P09619 whole entry): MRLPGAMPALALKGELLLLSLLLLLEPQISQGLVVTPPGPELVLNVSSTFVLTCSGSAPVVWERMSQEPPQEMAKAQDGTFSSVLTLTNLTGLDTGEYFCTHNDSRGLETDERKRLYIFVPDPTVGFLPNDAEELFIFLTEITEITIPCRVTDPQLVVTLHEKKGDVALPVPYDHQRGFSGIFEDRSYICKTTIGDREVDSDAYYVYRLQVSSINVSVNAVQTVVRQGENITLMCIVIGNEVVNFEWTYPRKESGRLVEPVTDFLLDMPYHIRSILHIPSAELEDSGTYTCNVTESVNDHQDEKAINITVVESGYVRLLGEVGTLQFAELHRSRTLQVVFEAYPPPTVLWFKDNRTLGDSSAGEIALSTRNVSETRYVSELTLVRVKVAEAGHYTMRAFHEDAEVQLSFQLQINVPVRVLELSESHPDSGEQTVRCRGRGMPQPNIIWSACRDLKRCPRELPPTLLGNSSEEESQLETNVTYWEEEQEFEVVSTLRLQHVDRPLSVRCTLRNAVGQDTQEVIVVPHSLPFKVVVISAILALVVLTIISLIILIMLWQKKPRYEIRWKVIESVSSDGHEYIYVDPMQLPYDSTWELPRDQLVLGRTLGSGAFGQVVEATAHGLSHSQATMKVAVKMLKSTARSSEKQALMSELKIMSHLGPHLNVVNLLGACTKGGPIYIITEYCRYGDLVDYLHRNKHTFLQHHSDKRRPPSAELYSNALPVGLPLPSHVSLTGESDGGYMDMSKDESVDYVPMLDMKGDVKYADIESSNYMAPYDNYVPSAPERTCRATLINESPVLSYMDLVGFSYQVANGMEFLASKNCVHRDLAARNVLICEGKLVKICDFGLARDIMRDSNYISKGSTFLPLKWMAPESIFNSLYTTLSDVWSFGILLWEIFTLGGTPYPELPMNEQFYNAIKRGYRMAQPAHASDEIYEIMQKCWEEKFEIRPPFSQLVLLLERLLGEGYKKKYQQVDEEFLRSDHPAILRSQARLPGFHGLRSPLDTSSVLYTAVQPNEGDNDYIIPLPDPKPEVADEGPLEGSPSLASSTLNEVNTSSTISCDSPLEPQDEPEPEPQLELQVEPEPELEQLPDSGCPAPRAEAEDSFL

## CC(=O)Nc1ccc(CNc2cc(C(=O)N[C@H]3CCCC[C@@H]3O)ccc2C)cn1 [US12509424, Example 116]
  IC50: 66 nM
